This note sets out measurements from patent US9181264B2, “Fused heteroaryls and their uses” (Hutchison MediPharma Limited, priority 2011, dated 2015).

A value given as a limit tells only on which side of the number the result lay.

The target in this assay is T1, PI3Kα kinase (Homo sapiens, UniProt P42336).
T1 construct: purchased Invitrogen PV4788
T1 sequence (P42336 whole entry): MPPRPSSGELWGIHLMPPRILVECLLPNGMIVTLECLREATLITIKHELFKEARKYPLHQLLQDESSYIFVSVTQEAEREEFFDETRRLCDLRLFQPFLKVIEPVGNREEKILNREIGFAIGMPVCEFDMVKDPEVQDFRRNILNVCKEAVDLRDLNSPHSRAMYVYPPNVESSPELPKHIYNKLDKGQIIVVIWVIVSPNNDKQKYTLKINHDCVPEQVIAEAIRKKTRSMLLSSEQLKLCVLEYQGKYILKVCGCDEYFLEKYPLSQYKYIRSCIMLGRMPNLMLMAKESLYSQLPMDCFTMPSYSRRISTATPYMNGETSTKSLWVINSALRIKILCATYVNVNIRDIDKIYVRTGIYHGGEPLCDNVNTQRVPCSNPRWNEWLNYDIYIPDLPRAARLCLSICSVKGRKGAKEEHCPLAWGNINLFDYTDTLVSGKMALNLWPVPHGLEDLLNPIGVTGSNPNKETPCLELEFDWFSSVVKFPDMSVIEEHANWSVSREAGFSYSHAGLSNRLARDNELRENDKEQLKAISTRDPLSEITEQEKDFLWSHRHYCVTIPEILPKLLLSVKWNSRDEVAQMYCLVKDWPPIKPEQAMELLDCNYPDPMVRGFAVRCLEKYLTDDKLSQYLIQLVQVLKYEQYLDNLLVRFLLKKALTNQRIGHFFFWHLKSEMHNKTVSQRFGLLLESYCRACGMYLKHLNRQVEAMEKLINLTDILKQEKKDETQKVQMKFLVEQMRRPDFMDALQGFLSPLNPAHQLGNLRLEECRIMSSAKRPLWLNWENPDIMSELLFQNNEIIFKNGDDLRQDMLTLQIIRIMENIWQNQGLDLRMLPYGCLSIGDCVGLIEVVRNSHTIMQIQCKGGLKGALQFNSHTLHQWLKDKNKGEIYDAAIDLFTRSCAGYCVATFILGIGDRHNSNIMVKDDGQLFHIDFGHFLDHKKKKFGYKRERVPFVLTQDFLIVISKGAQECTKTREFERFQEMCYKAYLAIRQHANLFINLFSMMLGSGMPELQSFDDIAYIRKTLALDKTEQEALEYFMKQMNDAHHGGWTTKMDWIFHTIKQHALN
T1 sequence (P27986 whole entry partner): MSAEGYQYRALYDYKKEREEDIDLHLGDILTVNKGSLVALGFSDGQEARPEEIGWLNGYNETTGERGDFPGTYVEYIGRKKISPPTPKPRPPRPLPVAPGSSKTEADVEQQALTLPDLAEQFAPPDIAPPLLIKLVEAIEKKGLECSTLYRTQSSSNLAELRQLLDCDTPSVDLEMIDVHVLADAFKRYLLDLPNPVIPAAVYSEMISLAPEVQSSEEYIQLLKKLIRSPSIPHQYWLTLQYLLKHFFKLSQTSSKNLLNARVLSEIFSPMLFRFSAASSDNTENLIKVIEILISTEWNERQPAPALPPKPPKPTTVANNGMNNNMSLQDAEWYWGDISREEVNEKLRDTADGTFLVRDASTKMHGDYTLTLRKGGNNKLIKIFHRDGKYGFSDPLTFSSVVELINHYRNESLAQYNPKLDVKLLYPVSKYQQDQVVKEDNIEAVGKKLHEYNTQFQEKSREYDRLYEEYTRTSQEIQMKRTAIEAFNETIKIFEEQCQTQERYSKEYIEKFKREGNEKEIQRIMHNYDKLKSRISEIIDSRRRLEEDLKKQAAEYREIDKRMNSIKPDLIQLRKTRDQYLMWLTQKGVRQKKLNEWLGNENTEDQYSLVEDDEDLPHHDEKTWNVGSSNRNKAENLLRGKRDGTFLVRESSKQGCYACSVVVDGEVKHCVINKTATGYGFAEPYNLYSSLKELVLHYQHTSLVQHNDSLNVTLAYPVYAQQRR
Nature of the assay: PI3Ka Transcreener ADP assay (fluorescence polarization). It counts as biochemical. As to conditions: 10 μM ATP, 30 μmol/L lipid substrate; read-out: IC50, inhibition of PI3Kα kinase. Here is the method:
Fluorescence polarization was used in this assay. The final conditions for kinase assay are 10 μM of ATP, 0.2 ng/μL of PI3Kα kinase, 30 μmol/L of lipid substrate and assay buffer (50 mmol/L of HEPES (pH 7.5), 100 mmol/L of NaCl, 1 mmol/L of EGTA, 3 mmol/L of MgCl2, 1 mmol/L of DTT and 0.03% CHAPS and 2% DMSO).
5 μL of test compounds in 10% DMSO and 10 μL of 0.5 ng/μL PI3K kinase (Invitrogen, PV4788) in assay buffer are put into a 96-well plate (Greiner, Cat. 675076), and then the reaction is started by the addition of 10 μL of 75 μmol/L PIP2, (PS Lipid Substrate Invitrogen, PV5100), and 25 μmol/L ATP mixture. After the mixture is incubated for 60 minutes at room temperature, 25 μL of transcreener Kinase Kit reagent—ADP Detection Mix—(Bellbrook Labs) is added, and the reaction is continued for an additional 1.5 hours. At the end, the plate is read in a Tecan Infinite F500 at excitation of 610 nm and emission of 670 nm.
A standard curve for ADP is obtained in a parallel way by replacing compound and PI3Kα kinase with DMSO and assay buffer, respectively. Different concentration of ADP, 0-10 μM, and ATP, 10-0 μM (ATP+ADP equal to 10 μM) are applied instead of a fixed concentration of ATP in this standard curve assay. Other conditions are the same as described above. The standard curve is plotted using Origin 8.0 software. The inhibition of test compound on ADP production is calculated based on ADP concentration from standard curve. IC50 is obtained using XLfit 2.0 software.
(In fluorescence polarisation assays a small probe gives low polarisation when free and higher when bound to something large.)
The IC50 is the concentration at which inhibition is half-maximal. As for `Nc1ncc(-c2ccc3ncc4nnc(CN5CCCC5)n4c3c2)cc1C(F)(F)F` [Compound 87], the half-maximal inhibitory concentration (IC50) was below 100 nM. Under `CC(C)(C#N)c1ccc(-n2cnc3cnc4ccc(-c5cnc(N)c(C(F)(F)F)c5)nc4c32)cn1` [Compound 89] stands below 100 nM; under `Cc1cc(-c2ccc3ncc4ncn(-c5ccc(C(C)(C)C#N)nc5)c4c3n2)cnc1N` [Compound 90], below 100 nM; under `COc1cc(-c2ccc3ncc4ncn(-c5ccc(C(C)(C)C#N)nc5)c4c3n2)cnc1OC` [Compound 92], below 100 nM.

As for `CC(C)(C#N)c1ccc(-n2cnc3cnc4ccc(-c5cnc(N)nc5)nc4c32)cn1` [Compound 94], the half-maximal inhibitory concentration (IC50) is below 100 nM. In the case of `COc1cc(-c2ccc3ncc4ncn(-c5ccc(C(C)(C)C#N)nc5)c4c3n2)cnc1N` [Compound 95] it was below 100 nM; in that of `Nc1ncc(-c2ccc3ncc4ncn(C5CCN(CC(=O)N6CCOCC6)CC5)c4c3n2)cc1C(F)(F)F` [Compound 97], below 100 nM; in that of `COc1cc(-c2ccc3ncc4ncn(C5CCN(CC(=O)N(C)C)CC5)c4c3n2)cnc1OC` [Compound 99], below 100 nM. Consider `Cc1ccc(-c2ccc3ncc4ncn(C5CCN(CC(=O)N(C)C)CC5)c4c3n2)cn1` [Compound 100], for which the IC50 was below 100 nM. In the case of `CCNC(=O)N1CCC(n2cnc3cnc4ccc(-c5cnc(N)c(C(F)(F)F)c5)nc4c32)CC1` [Compound 101] it was below 100 nM; in that of `CC(C)(C#N)c1ccc(-n2cnc3cnc4ccc(-c5cnc(N)c(C(F)(F)F)c5)nc4c32)cc1` [Compound 104], below 100 nM; in that of `CCOc1cc(-c2ccc3ncc4ncn(-c5ccc(C(C)(C)C#N)nc5)c4c3n2)cnc1N` [Compound 108], below 100 nM. In the case of `Nc1ncc(-c2ccc3ncc4ncn(CCN5CCOCC5)c4c3n2)cc1C(F)(F)F` [Compound 109] it was below 100 nM; in that of `C[C@@H](O)C(=O)N1CCC(n2cnc3cnc4ccc(-c5cnc(N)c(C(F)(F)F)c5)nc4c32)CC1` [Compound 110], below 100 nM. In the case of `Nc1ncc(-c2ccc3ncc4ncn(CCN5CCCC5)c4c3n2)cc1C(F)(F)F` [Compound 111], the 50% inhibitory concentration (IC50) was below 100 nM. Under `C#Cc1cc(-c2ccc3ncc4ncn(C5CCN(C(=O)C6CC6)CC5)c4c3n2)cnc1N` [Compound 112] stands below 100 nM; under `Cc1ccc(-c2ccc3ncc4ncn(C5CCN(C(=O)[C@H](C)O)CC5)c4c3n2)cn1` [Compound 113], below 100 nM; under `Cc1nc2cnc3ccc(-c4cnc(N)c(C(F)(F)F)c4)nc3c2n1C1CCN(CC(=O)N2CCOCC2)CC1` [Compound 124], below 100 nM. Consider `Cc1nc2cnc3ccc(-c4cnc(N)c(C(F)(F)F)c4)nc3c2n1C1CCN(CC(=O)N2CCCC2)CC1` [Compound 125], for which the IC50 was below 100 nM. In the case of `Cc1nc2cnc3ccc(-c4cnc(N)c(C(F)(F)F)c4)nc3c2n1C1CCN(C(=O)[C@@H](C)O)CC1` [Compound 126], the IC50 was below 100 nM. Regarding `Cc1ccc(-c2ccc3ncc4nc(C)n(C5CCN(C(=O)[C@H](C)O)CC5)c4c3n2)cn1` [Compound 127], the IC50 is below 100 nM. As for `Cc1nc2cnc3ccc(-c4cnc(N)c(C(F)(F)F)c4)nc3c2n1C1CCN(Cc2ccccn2)CC1` [Compound 128], the IC50 was below 100 nM. With `COCCN1CCC(n2c(C)nc3cnc4ccc(-c5cnc(N)c(C(F)(F)F)c5)nc4c32)CC1` [Compound 130], the IC50 is below 100 nM. In the case of `Cc1nc2cnc3ccc(-c4cnc(N)c(C(F)(F)F)c4)nc3c2n1C1CCN(C(=O)c2ccccn2)CC1` [Compound 132] it was below 100 nM; in that of `Cc1nc2cnc3ccc(-c4cnc(N)c(C(F)(F)F)c4)nc3c2n1C1CCOCC1` [Compound 133], below 100 nM; in that of `Cc1nc2cnc3ccc(-c4cnc5[nH]ncc5c4)nc3c2n1C1CCOCC1` [Compound 134], below 100 nM.

As for `Cc1nc2cnc3ccc(-c4cnc5[nH]ccc5c4)nc3c2n1C1CCOCC1` [Compound 135], the IC50 is below 100 nM. Turning to `Cc1cc(-c2ccc3ncc4nc(C)n(C5CCC(N6CCOCC6)CC5)c4c3n2)cnc1N` (centres unmarked) [Compound 136], the IC50 was below 100 nM. In the case of `Cc1nc2cnc3ccc(-c4cnc(N)c(C(F)(F)F)c4)nc3c2n1C1CCC(N2CCOCC2)CC1` (centres unmarked) [Compound 137] it was below 100 nM.

For `Cc1nc2cnc3ccc(-c4cnc(N)c(C(F)(F)F)c4)nc3c2n1C1CCN(S(C)(=O)=O)CC1` [Compound 138], the IC50 is below 100 nM. In the case of `COc1ncc(-c2ccc3ncc4nc(C)n(C5CCN(S(C)(=O)=O)CC5)c4c3n2)cn1` [Compound 139] it was below 100 nM; in that of `C=CC(=O)N1CCC(n2c(C)nc3cnc4ccc(-c5cnc(N)c(C(F)(F)F)c5)nc4c32)CC1` [Compound 140], below 100 nM; in that of `Cc1nc2cnc3ccc(-c4cnc(N)c(C(F)(F)F)c4)nc3c2n1CCCN1CCOCC1` [Compound 142], below 100 nM. `COc1ncc(-c2ccc3ncc4nc(C)n(C5CCN(C(=O)C6CC6)CC5)c4c3n2)cc1C(F)(F)F` [Compound 143]: the 50% inhibitory concentration (IC50) was below 100 nM.

Regarding `CC#CC(=O)N1CCC(n2c(C)nc3cnc4ccc(-c5cnc(N)c(C(F)(F)F)c5)nc4c32)CC1` [Compound 144], the IC50 was below 100 nM.

Turning to `C/C=C/C(=O)N1CCC(n2c(C)nc3cnc4ccc(-c5cnc(N)c(C(F)(F)F)c5)nc4c32)CC1` [Compound 145], the concentration for half-maximal inhibition (IC50) is below 100 nM.

As to `COc1ncc(-c2ccc3ncc4nnc(C)n4c3c2)cc1NS(C)(=O)=O` [Compound 150], the IC50 is below 100 nM. `COc1ncc(-c2ccc3ncc4nncn4c3c2)cc1NS(=O)(=O)c1ccc(F)cc1F` [Compound 161]: the half-inhibitory concentration (IC50) is below 100 nM. In the case of `COc1ncc(-c2ccc3ncc4nnc(C5CC5)n4c3c2)cc1NS(=O)(=O)c1ccc(F)cc1F` [Compound 162] it was below 100 nM. `COc1ncc(-c2ccc3ncc4n[nH]c(=O)n4c3c2)cc1NS(=O)(=O)c1ccc(F)cc1F` [Compound 163]: the IC50 was below 100 nM. Under `CCS(=O)(=O)Nc1cc(-c2ccc3ncc4nnc(C)n4c3c2)cnc1OC` [Compound 164] stands below 100 nM. Consider `COc1ncc(-c2ccc3ncc4nnc(C(=O)N5CCCC5)n4c3c2)cc1NS(=O)(=O)C1CC1` [Compound 167], for which the half-maximal inhibitory concentration (IC50) was below 100 nM. Consider `COc1ncc(-c2ccc3ncc4nnc(C(=O)N(C)C)n4c3c2)cc1NS(=O)(=O)C1CC1` [Compound 168], for which the concentration for half-maximal inhibition (IC50) was below 100 nM. Under `COc1ncc(-c2ccc3ncc4nnc(C(=O)N(C)C)n4c3c2)cc1NS(=O)(=O)c1ccccc1` [Compound 169] stands below 100 nM; under `COCc1nnc2cnc3ccc(-c4cnc(OC)c(NS(=O)(=O)C5CC5)c4)cc3n12` [Compound 170], below 100 nM; under `COc1ncc(-c2ccc3ncc4nnc(CCN5CCOCC5)n4c3c2)cc1NS(C)(=O)=O` [Compound 171], below 100 nM. For `COc1ncc(-c2ccc3ncc4nnc(CN5CCOCC5)n4c3c2)cc1NS(C)(=O)=O` [Compound 172], the IC50 is below 100 nM. Turning to `COc1ncc(-c2ccc3ncc4nccn4c3c2)cc1NS(=O)(=O)c1ccc(F)cc1F` [Compound 173], the IC50 is below 100 nM.

Regarding `COc1ncc(-c2ccc3ncc4nnc(CN5CCCC5)n4c3c2)cc1NS(C)(=O)=O` [Compound 174], the 50% inhibitory concentration (IC50) is below 100 nM. Under `COc1ncc(-c2ccc3ncc4nnc(CN5CCCC5)n4c3c2)cc1NS(=O)(=O)c1ccccc1` [Compound 175] stands below 100 nM. In the case of `COc1ncc(-c2ccc3ncc4nccn4c3c2)cc1NS(=O)(=O)C(F)(F)F` [Compound 176] it was below 100 nM; in that of `COc1ncc(-c2ccc3ncc4ncn(CCN5CCOCC5)c4c3n2)cc1NS(C)(=O)=O` [Compound 177], below 100 nM; in that of `COc1ncc(-c2ccc3ncc4nnc(C)n4c3c2)cc1NS(=O)(=O)c1ccc(C)cc1` [Compound 179, N-(2-methoxy-5-(1-methyl-[1,2,4]triazolo[4,3-a]quinoxalin-8-yl)pyridin-3-yl)-4-methylbenzenesulfonamide], below 100 nM.

With `COc1ncc(-c2ccc3ncc4nnc(C)n4c3c2)cc1NS(=O)(=O)c1ccc(F)cc1` [Compound 182], the IC50 is below 100 nM. For the compound `CC(C)(C#N)c1ccc(-n2cnc3nnc4ccc(-c5cnc(N)c(C(F)(F)F)c5)cc4c32)cc1` [Compound 183, 2-(4-(8-(6-amino-5-(trifluoromethyl)pyridin-3-yl)-1H-imidazo[4,5-c]cinnolin-1-yl)phenyl)-2-methylpropanenitrile], the IC50 was below 100 nM. In the case of `Cc1nc2nnc3ccc(-c4cnc(N)c(C(F)(F)F)c4)cc3c2n1-c1ccc(C(C)(C)C#N)cc1` [Compound 184] it was below 100 nM.
